US20130267594A1, “PROLYL HYDROXYLASE INHIBITORS AS RADIATION MITIGATORS AND RADIATION PROTECTORS” (priority 2010, published 2013)

Assays:
H3K9me3 = experiment: Western blot of H3K9me3 in Suv39h1/2−/− MEFs (FIG. 4A); type: cell-based, mouse; details: Suv39h1/2−/− cells, DMOG 100 μM/2hours
Protocol: Cell lysates and Western blot analysis: Antibodies used: mHif1α (Santa Cruz Biotechnology, CA); hHIF1α (Abcam, CA); H3K9me3 (Millipore, N.Y.); β-actin (Cell Signaling Technology, Mass.); CHD4 and MTA3 (Bethyl Laboratories, Tex.); Suv39h1 (Novus, CA). To prepare nuclear lysates, cells were resuspended in 500 μl buffer A (10 mM Tris, pH8.0/1 mM EDTA, pH8.0/150 mM NaCl/0.5% NP-40/1 mM PMSF/5 μg/ml leupeptin/20 μg/ml aprotinin), incubated on ice for 15 min and centrifuged at 500 g for 5 min at 4° C. Supernatant was removed and the pellet resuspended in buffer B (20 mM Hepes, pH7.9/400 mM NaCl/1 mM EDTA/0.5 mM DTT/1 mM PMSF/5 μg/ml leupeptin/20 μg/ml aprotinin), incubated on ice for 15 min and cleared by centrifugation (21,000 g for 5 min at 4° C.). For western blots, equal amounts of protein (Bradford Protein Assay kit, Bio-Rad Laboratories, CA) were separated by electrophoresis and transferred to nitrocellulose membranes (Bio-Rad Laboratories, CA). Membranes were blocked with Odyssey Blocking Buffer (Li-Cor, NB), incubated with primary antibodies for 3 h, and washed in PBST (PBS and 0.1% Tween-20) followed by goat anti-mouse IR Dye-800CW or goat anti-rabbit IR Dye-680CW secondary antibodies (Li-Cor, NB). Imaging was performed using the Li-Cor Odyssey Near Infra Red System, and analyzed using the Odyssey software system 3.0 package (Li-Cor, NB).

CHD4 = type: cell-based; details: MCF7 cells; CoCl2 200 μM time course, FIG. 8F; DMOG only stated
HeLa cells = experiment: Control experiment: toxicity of DMOG to the cells over the time course; type: cell-based; details: control experiments to FIG. 2

SMILES: COC(=O)CNC(=O)C(=O)OC [DMOG, dimethyloxalylglycine]
- levels of H3K9me3 (Western blot) (H3K9me3): increased the levels of H3K9me3 in Suv39h1/2−/− cells to a level similar to those seen in Suv39h1/1+/+ cells
- CHD4 protein levels (CHD4): increased
- toxicity over the time course of the experiment (HeLa cells): did not exhibit significant toxicity
